In ChEMBL document CHEMBL1201862, “PubChem BioAssay data set” (2004):
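Method: 48-hour compound exposure of cells in 96-well plates, five concentrations, linear interpolation of endpoints. GI50 = concentration required for 50% inhibition of growth.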 Activity calls are given as the source filed them. Cut-off read from the data, not from the text of the source: active = GI50 up to about 1.1 µM and inactive = higher.

How the values were obtained:
Experiment in all cases: NCI-60 cell line screen, 48 h
786-0 = test system: 786-0
A498 = test system: A498
MCF7 = test system: MCF7
DU-145 = test system: DU-145
IGROV-1 = test system: IGROV-1
SNB-75 = test system: SNB-75
PC-3 = test system: PC-3
HOP-92 = test system: HOP-92
KM12 = test system: KM12
HCT-116 = test system: HCT-116
RXF 393 = test system: RXF 393
SK-MEL-2 = test system: SK-MEL-2
HT-29 = test system: HT-29
SK-MEL-28 = test system: SK-MEL-28
UO-31 = test system: UO-31
SN12C = test system: SN12C
M14 = test system: M14
OVCAR-5 = test system: OVCAR-5
K562 = test system: K562
MOLT-4 = test system: MOLT-4
HL-60 = test system: HL-60
MDA-N = test system: MDA-N
U-251 = test system: U-251
SK-OV-3 = test system: SK-OV-3
MDA-MB-231 = test system: MDA-MB-231
UACC-257 = test system: UACC-257
ACHN = test system: ACHN
CAKI-1 = test system: CAKI-1
OVCAR-8 = test system: OVCAR-8
EKVX = test system: EKVX
UACC-62 = test system: UACC-62
TK-10 = test system: TK-10
SW-620 = test system: SW-620
MDA-MB-435 = test system: MDA-MB-435
LOX IMVI = test system: LOX IMVI
HOP-62 = test system: HOP-62
CCRF-CEM = test system: CCRF-CEM
RPMI-8226 = test system: RPMI-8226
OVCAR-4 = test system: OVCAR-4
SNB-19 = test system: SNB-19
SR = test system: SR
Hs-578T = test system: Hs-578T
SF-268 = test system: SF-268
HCT-15 = test system: HCT-15
A549 = test system: A549
SK-MEL-5 = test system: SK-MEL-5
COLO 205 = test system: COLO 205
Malme-3M = test system: Malme-3M
NCI-H522 = test system: NCI-H522
SF-539 = test system: SF-539
T47D = test system: T47D
HCC 2998 = test system: HCC 2998
NCI-H460 = test system: NCI-H460
SF-295 = test system: SF-295
NCI/ADR-RES = test system: NCI/ADR-RES
NCI-H23 = test system: NCI-H23
NCI-H226 = test system: NCI-H226

`COc1cc(/C=C2\CCC(C)C3=C2NC(=S)NC3c2cc(OC)c(OC)c(OC)c2)cc(OC)c1OC` (stereo unspecified) was tested, and the GI50 (786-0) was 83.9 µM (inactive), the GI50 (A498) was 53 µM (inactive) and the GI50 (MCF7) was 35.7 µM (inactive). For the same molecule, the GI50 (DU-145) was 56.8 µM (inactive), the GI50 (IGROV-1) was 40.3 µM (inactive) and the GI50 (SNB-75) was 25.6 µM (inactive). The GI50 (PC-3) was 37.7 µM (inactive), the GI50 (HOP-92) was > 100 µM (inactive) and the GI50 (KM12) was 32.3 µM (inactive). For the same molecule, the GI50 (HCT-116) was 49 µM (inactive), the GI50 (RXF 393) was 34.1 µM (inactive) and the GI50 (SK-MEL-2) was > 100 µM (inactive). For the same molecule, the GI50 (HT-29) was 60.1 µM (inactive), the GI50 (SK-MEL-28) was 30.4 µM (inactive) and the GI50 (UO-31) was 15.8 µM (inactive). For the same molecule, the GI50 (SN12C) was 68.4 µM (inactive), the GI50 (M14) was 60.3 µM (inactive) and the GI50 (OVCAR-5) was > 100 µM (inactive). For the same molecule, the GI50 (K562) was 26.1 µM (inactive), the GI50 (MOLT-4) was 24 µM (inactive) and the GI50 (HL-60) was 12.5 µM (inactive). The GI50 (MDA-N) was 43.1 µM (inactive), the GI50 (U-251) was 46.8 µM (inactive) and the GI50 (SK-OV-3) was > 100 µM (inactive). For the same molecule, the GI50 (MDA-MB-231) was 34.5 µM (inactive), the GI50 (UACC-257) was 53.8 µM (inactive) and the GI50 (ACHN) was 92.7 µM (inactive). The GI50 (CAKI-1) was 81.5 µM (inactive), the GI50 (OVCAR-8) was 54 µM (inactive) and the GI50 (EKVX) was 58.1 µM (inactive). The GI50 (UACC-62) was 40 µM (inactive), the GI50 (TK-10) was 70.6 µM (inactive) and the GI50 (SW-620) was 96.2 µM (inactive). For the same molecule, the GI50 (MDA-MB-435) was 38.2 µM (inactive), the GI50 (LOX IMVI) was 53.2 µM (inactive) and the GI50 (HOP-62) was 70.6 µM (inactive). The GI50 (CCRF-CEM) was 25.2 µM (inactive), the GI50 (RPMI-8226) was 18.5 µM (inactive) and the GI50 (OVCAR-4) was 69 µM (inactive). For the same molecule, the GI50 (SNB-19) was 51.8 µM (inactive), the GI50 (SR) was 25.2 µM (inactive) and the GI50 (Hs-578T) was 37 µM (inactive). The GI50 (SF-268) was 73.6 µM (inactive), the GI50 (HCT-15) was 47.4 µM and the GI50 (A549) was 36.4 µM (inactive). For the same molecule, the GI50 (SK-MEL-5) was 23.2 µM (inactive).

In the case of `O=C1NC(=N/c2ccccc2)/C(=N\c2ccccc2)N1c1ccccc1`, the GI50 (786-0) is reported as 15.5 µM (inactive), the GI50 (A498) is reported as 17.2 µM (inactive) and the GI50 (DU-145) is reported as 12.4 µM (inactive). For the same molecule, the GI50 (IGROV-1) was 16.6 µM (inactive), the GI50 (SNB-75) was 16.3 µM (inactive) and the GI50 (COLO 205) was 14.8 µM (inactive). The GI50 (PC-3) was 14.5 µM (inactive), the GI50 (HOP-92) was 16.3 µM (inactive) and the GI50 (Malme-3M) was 17.4 µM (inactive). The GI50 (KM12) was 15.6 µM (inactive), the GI50 (HCT-116) was 17.7 µM (inactive) and the GI50 (NCI-H522) was 1.7 µM (inactive). The GI50 (RXF 393) was 15 µM (inactive), the GI50 (SK-MEL-2) was 15.1 µM (inactive) and the GI50 (HT-29) was 16 µM (inactive). For the same molecule, the GI50 (SK-MEL-28) was 14.8 µM (inactive), the GI50 (UO-31) was 16.5 µM (inactive) and the GI50 (SF-539) was 17.4 µM (inactive). For the same molecule, the GI50 (T47D) was 15.1 µM (inactive), the GI50 (SN12C) was 16.4 µM (inactive) and the GI50 (OVCAR-5) was 18 µM (inactive). For the same molecule, the GI50 (K562) was 26.5 µM (inactive), the GI50 (MOLT-4) was 25.9 µM (inactive) and the GI50 (HCC 2998) was 16.9 µM (inactive). For the same molecule, the GI50 (HL-60) was 26.2 µM (inactive), the GI50 (MDA-N) was 12.3 µM (inactive) and the GI50 (U-251) was 15.6 µM (inactive). For the same molecule, the GI50 (SK-OV-3) was 17.6 µM (inactive), the GI50 (MDA-MB-231) was 20.8 µM (inactive) and the GI50 (UACC-257) was 15.8 µM (inactive). For the same molecule, the GI50 (ACHN) was 16.9 µM (inactive), the GI50 (CAKI-1) was 16.3 µM (inactive) and the GI50 (NCI-H460) was 16.5 µM (inactive). The GI50 (OVCAR-8) was 15.8 µM (inactive), the GI50 (EKVX) was 16.7 µM (inactive) and the GI50 (SF-295) was 15.8 µM (inactive). For the same molecule, the GI50 (NCI/ADR-RES) was 15.5 µM (inactive), the GI50 (NCI-H23) was 16.7 µM (inactive) and the GI50 (UACC-62) was 12.7 µM (inactive). The GI50 (TK-10) was 16.9 µM (inactive), the GI50 (SW-620) was 16.5 µM (inactive) and the GI50 (MDA-MB-435) was 14.2 µM (inactive). For the same molecule, the GI50 (LOX IMVI) was 16.3 µM (inactive), the GI50 (NCI-H226) was 16.9 µM (inactive) and the GI50 (HOP-62) was 18.5 µM (inactive). For the same molecule, the GI50 (CCRF-CEM) was 30.3 µM (inactive), the GI50 (RPMI-8226) was 27 µM (inactive) and the GI50 (OVCAR-4) was 18.4 µM (inactive). For the same molecule, the GI50 (SNB-19) was 17 µM (inactive), the GI50 (SR) was 20 µM (inactive) and the GI50 (Hs-578T) was 16.6 µM (inactive). The GI50 (SF-268) was 17.9 µM (inactive), the GI50 (HCT-15) was 14.5 µM and the GI50 (A549) was 15.9 µM (inactive). For the same molecule, the GI50 (SK-MEL-5) was 15.9 µM (inactive).
